In ChEMBL document CHEMBL3784947, “Pharmacophore elucidation of phosphoiodyn A - Potent and selective peroxisome proliferator-activated receptor β/δ agonists with neuroprotective activity” (Bioorg Med Chem Lett, 2016):
Active and inactive are the calls of the source. The calls are words filed in the database; no cut-off is given here.

How the values were obtained:
[1] = biological target: T1, Peroxisome proliferator-activated receptor delta (Homo sapiens, UniProt Q03181); assay: Agonist activity at human PPAR delta by cell based cotransfection assay
T1 sequence (Q03181 whole entry): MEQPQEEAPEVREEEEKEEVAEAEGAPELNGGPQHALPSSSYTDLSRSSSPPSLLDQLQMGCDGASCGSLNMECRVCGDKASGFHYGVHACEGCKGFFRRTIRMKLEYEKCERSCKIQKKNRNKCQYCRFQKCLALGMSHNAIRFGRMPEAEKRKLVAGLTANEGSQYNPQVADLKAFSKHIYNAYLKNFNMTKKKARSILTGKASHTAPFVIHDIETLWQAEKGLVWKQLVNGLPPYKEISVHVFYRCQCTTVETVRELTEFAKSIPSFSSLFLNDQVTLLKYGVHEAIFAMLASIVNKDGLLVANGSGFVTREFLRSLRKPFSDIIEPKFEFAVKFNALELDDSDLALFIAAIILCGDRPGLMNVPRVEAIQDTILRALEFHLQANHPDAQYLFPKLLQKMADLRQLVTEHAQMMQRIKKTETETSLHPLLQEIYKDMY

[2] = biological target: T1, Peroxisome proliferator-activated receptor delta; assay: Agonist activity at PPAR delta (unknown origin) transfected in HEK293 cells after 24 hrs by dual-luciferase reporter gene assay; assay type: cell-based
[3] = biological target: T2, Peroxisome proliferator-activated receptor alpha (Homo sapiens) (UniProt Q07869); assay: Agonist activity at PPAR alpha (unknown origin) transfected in HEK293 cells at 1 uM after 24 hrs by dual-luciferase reporter gene assay; assay type: cell-based
T2 sequence (whole entry): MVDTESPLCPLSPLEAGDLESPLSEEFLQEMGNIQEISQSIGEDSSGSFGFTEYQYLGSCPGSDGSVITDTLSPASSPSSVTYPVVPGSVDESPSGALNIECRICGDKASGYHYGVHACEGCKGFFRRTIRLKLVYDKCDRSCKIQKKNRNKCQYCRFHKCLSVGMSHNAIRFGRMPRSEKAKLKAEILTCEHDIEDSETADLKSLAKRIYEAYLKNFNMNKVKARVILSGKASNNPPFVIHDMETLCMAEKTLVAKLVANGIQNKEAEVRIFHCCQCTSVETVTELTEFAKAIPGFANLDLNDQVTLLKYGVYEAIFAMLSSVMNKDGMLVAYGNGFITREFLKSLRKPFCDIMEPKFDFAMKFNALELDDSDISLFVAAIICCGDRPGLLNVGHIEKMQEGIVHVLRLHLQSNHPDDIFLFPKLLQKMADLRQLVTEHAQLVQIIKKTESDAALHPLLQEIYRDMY

[4] = biological target: T3, Peroxisome proliferator-activated receptor gamma (Homo sapiens) (UniProt P37231); assay: Agonist activity at PPAR gamma (unknown origin) transfected in HEK293 cells at 1 uM after 24 hrs by dual-luciferase reporter gene assay; assay type: cell-based
T3 sequence (whole entry): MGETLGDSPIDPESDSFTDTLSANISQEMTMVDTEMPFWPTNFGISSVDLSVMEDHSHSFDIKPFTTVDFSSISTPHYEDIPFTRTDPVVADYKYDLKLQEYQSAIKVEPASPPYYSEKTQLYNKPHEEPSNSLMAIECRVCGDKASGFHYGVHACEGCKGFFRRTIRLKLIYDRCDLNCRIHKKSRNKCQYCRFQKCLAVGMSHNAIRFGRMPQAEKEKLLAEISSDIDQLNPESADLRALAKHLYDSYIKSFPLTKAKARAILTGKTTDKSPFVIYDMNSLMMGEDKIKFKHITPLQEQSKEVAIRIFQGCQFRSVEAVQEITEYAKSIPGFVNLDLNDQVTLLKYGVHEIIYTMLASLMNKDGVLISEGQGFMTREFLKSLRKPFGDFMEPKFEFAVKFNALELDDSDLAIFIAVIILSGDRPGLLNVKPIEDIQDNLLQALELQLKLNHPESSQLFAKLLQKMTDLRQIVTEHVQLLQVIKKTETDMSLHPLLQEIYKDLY

[5] = biological target: T4, Peroxisome proliferator-activated receptor delta (Homo sapiens) (UniProt Q03181); assay: Agonist activity at PPAR delta (unknown origin) transfected in HEK293 cells at 1 uM after 24 hrs by dual-luciferase reporter gene assay; assay type: cell-based
T4 sequence (whole entry): T1 sequence (Q03181 whole entry)

[6] = biological target: T3, Peroxisome proliferator-activated receptor gamma (Homo sapiens); assay: Agonist activity at PPAR gamma (unknown origin) transfected in HEK293 cells at 0.1 to 100 uM after 24 hrs by DR-1 luciferase reporter gene assay; assay type: cell-based
PC-12 [7] = assay: Neuroprotective activity against etoposide-induced apoptosis in rat PC12 cells assessed as cell viability at 3 uM preincubated for 4 hrs followed by etoposide addition measured after 48 hrs by prestoblue staining based fluorescence assay (reference value: 52 %); assay type: functional; conditions: read-out: Activity
PC-12 [8] = assay: Neuroprotective activity against serum starvation-induced apoptosis in rat PC12 cells assessed as cell survival at 1 to 30 uM after 24 hrs by prestoblue staining based fluorescence assay (reference value: 55%); assay type: functional
[9] = biological target: T4, Peroxisome proliferator-activated receptor delta (Homo sapiens); assay: Agonist activity at PPAR delta (unknown origin) transfected in HEK293 cells at 0.001 to 1000 uM after 24 hrs by pGL3-Luciferase reporter gene assay; assay type: cell-based
PC-12 [10] = assay: Neuroprotective activity against etoposide-induced apoptosis in rat PC12 cells assessed as cell viability at 1 uM preincubated for 4 hrs followed by etoposide addition measured after 48 hrs by prestoblue staining based fluorescence assay; assay type: functional
[11] = biological target: T4, Peroxisome proliferator-activated receptor delta (Homo sapiens); assay: Agonist activity at PPAR delta (unknown origin) transfected in HEK293 cells at 0.001 to 1000 uM after 24 hrs by DR-4 luciferase reporter gene assay; assay type: cell-based
[12] = biological target: PPAR delta/gamma (Homo sapiens) (UniProt P37231+Q03181); assay: Ratio of EC50 for human PPAR gamma to EC50 for human PPAR delta
Homo sapiens = species on record: Homo sapiens; assay: Ratio of EC50 for human PPAR alpha to EC50 for human PPAR delta
[13] = biological target: T1, Peroxisome proliferator-activated receptor delta; assay: Agonist activity at PPAR delta (unknown origin)

Compound | EC50 [2] | Activity [3] | Activity [4] | Activity [5] | Activity [6] | viability at 3 µM (PC-12 [7]) | Survival (PC-12 [8]) | other results
O=P(O)(OCO)OCCC#CC#CCCCCCC/C=C/I | > 10000 nM |  |  |  |  |  |  | EC50 [1]: > 10 nM
Cc1cccc(Nc2cc(Cl)nc(SCC(=O)O)n2)c1C |  | Active |  |  |  |  |  | 
CCOC(=O)CCO | > 1000 nM | Active | Active | Active | Active |  |  | 
CCOC(=O)Nc1ccc(NCc2ccc(F)cc2)nc1N [FLUPIRTINE] |  |  |  |  |  | 80% | 82% | 
CCOP(=O)(O)CCO | 78 nM | inactive | inactive | Active | inactive | 110% | 77% | Activity [9]: inactive; Activity (PC-12 [10]): Active; Activity [11]: inactive
CCOP(=O)(CCO)OCC | 112 nM | inactive | inactive | Active | inactive | 116% | 78% | Activity [9]: inactive; Activity (PC-12 [10]): Active; Activity [11]: inactive
CN(CCOc1ccc(CC2SC(=O)NC2=O)cc1)c1ccccn1 (stereo not given) |  |  | Active |  |  |  |  | 
O=P(O)(CCO)OCCC#CC#CCCCCCC/C=C/I | 24 nM |  |  |  |  |  |  | EC50 [1]: 23.7 nM; Ratio EC50 [12]: > 200; Ratio EC50 (Homo sapiens): > 200
C[C@@H]1CN(c2ccc(OC(F)(F)F)cc2)C[C@H](C)N1S(=O)(=O)c1cccc2c1C[C@@H](C(=O)O)C2 |  |  |  |  |  |  |  | EC50 [13]: 1.5 nM
O=P(O)(O)CCO | > 100000 nM | inactive | inactive |  | inactive |  |  | 
